Test results from the NIST ThermoML archive (doi:10.1021/je034162x).

Conditions: 101.33 kPa, Liquid, Hot wire method

C=CCCCC [hex-1-ene]
Conditions	thermal conductivity [W/m/K]	thermal diffusivity [m2/s]
259.93 K	0.1304	–
260.19 K	0.1305	–
260.47 K	0.1303	–
261.24 K	–	9.12e-08
262.13 K	–	9.15e-08
263.04 K	–	9.14e-08
275.98 K	0.1247	–
276.28 K	0.1249	–
276.6 K	0.1245	–
277.38 K	–	8.63e-08
278.3 K	–	8.69e-08
279.25 K	–	8.67e-08
295.84 K	0.1181	–
296.26 K	0.1178	–
296.53 K	0.1179	–
297.34 K	–	8.25e-08
298.59 K	–	8.22e-08
299.33 K	–	8.2e-08
301.27 K	0.1161	–
301.73 K	0.116	–
301.96 K	0.1158	–
302.77 K	–	8.05e-08
304.08 K	–	8.06e-08
304.81 K	–	8.04e-08
314.67 K	0.1119	–
315.04 K	0.1115	–
315.38 K	0.1112	–
316.21 K	–	7.67e-08
317.27 K	–	7.71e-08
318.31 K	–	7.68e-08
329.14 K	0.1071	–
329.53 K	0.107	–
329.89 K	0.1068	–
330.76 K	–	7.42e-08
331.81 K	–	7.39e-08
332.96 K	–	7.4e-08

CC(C)c1ccccc1 [isopropylbenzene]
Conditions	thermal conductivity [W/m/K]	thermal diffusivity [m2/s]
261.13 K	0.1263	–
261.33 K	0.1262	–
261.48 K	0.1262	–
261.85 K	–	8.45e-08
262.36 K	–	8.45e-08
262.72 K	–	8.44e-08
275.03 K	0.1238	–
275.24 K	0.1237	–
275.4 K	0.1237	–
275.75 K	–	8.18e-08
276.27 K	–	8.21e-08
276.65 K	–	8.22e-08
294.11 K	0.1202	–
294.32 K	0.12	–
294.47 K	0.1199	–
294.85 K	–	7.92e-08
295.35 K	–	7.86e-08
295.72 K	–	7.86e-08
312.46 K	0.1164	–
312.68 K	0.1163	–
312.84 K	0.1162	–
313.18 K	–	7.51e-08
313.72 K	–	7.54e-08
314.09 K	–	7.53e-08
329.45 K	0.1128	–
329.68 K	0.1127	–
329.83 K	0.1126	–
330.17 K	–	7.21e-08
330.7 K	–	7.21e-08
331.08 K	–	7.21e-08

CC1CCCC1 [methylcyclopentane]
Conditions	thermal conductivity [W/m/K]	thermal diffusivity [m2/s]
258.71 K	0.1273	–
258.96 K	0.1271	–
259.11 K	0.127	–
259.52 K	–	9.4e-08
260.16 K	–	9.37e-08
260.57 K	–	9.34e-08
277 K	0.1212	–
277.24 K	0.1211	–
277.41 K	0.121	–
277.86 K	–	8.8e-08
278.49 K	–	8.85e-08
278.91 K	–	8.82e-08
294.9 K	0.1155	–
295.15 K	0.1154	–
295.32 K	0.1153	–
295.76 K	–	8.24e-08
296.37 K	–	8.25e-08
296.8 K	–	8.24e-08
312.57 K	0.1101	–
312.82 K	0.11	–
312.99 K	0.1099	–
313.44 K	–	7.77e-08
314.04 K	–	7.73e-08
314.46 K	–	7.71e-08
